From the METLIN SMRT retention time set (Domingo-Almenara et al. 2019)

experiment: gradient 5% acetonitrile 3 min, to 50% in 2 min, to 85% in 15 min, held 3 min, 100 µL/min; settings: column: Zorbax Extend-C18 2.1 x 50 mm; eluents: water / acetonitrile, 0.1% formic acid
Summary of the method: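 The mobile phases were water and acetonitrile, each with 0.1% formic acid, pumped at 100 μL/min through a Zorbax Extend-C18 column (2.1 × 50 mm, 1.8 μm). Pure standards were injected as mixtures of ~100 molecules and detected by a quadrupole time-of-flight mass spectrometer in positive and negative ionization mode. Retention time came from computationally picked adduct peaks, each inspected by hand.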

SMILES	RP-LC retention time [s]
O=C(NCC1CC1)c1c(OCC2CC2)cc(=O)n2c1CCCCC2	688
COc1ccc(-c2c(C)noc2NC(C)=O)cc1S(=O)(=O)Nc1cc(Cl)ccc1C	792
O=C(Cc1cccs1)NC1CCc2nnc(C3CC3)n2CC1 (stereo not given)	598
O=C(c1ccoc1)N1CCC2(CC1)N=C(c1ccc(Cl)cc1)NO2	774
Cc1ccc(NC(=O)c2cn(-c3cc(N(C)C)ncn3)cn2)cc1	832
Cc1oc(CNC(=O)Nc2ccc(Cl)cc2F)nc1C(=O)N1CCCC1	723
CCN1CCN(C(=O)C2CCN(CCc3cn(CC)c4ncccc34)CC2)CC1	525
CCn1c(=O)oc2cc(-c3noc(-c4cc(F)ccc4F)n3)ccc21	1100
CC(NC(=O)C1CCN(c2cncnc2N2CCOCC2)CC1)c1ccc(F)cc1 (stereo not given)	628
COc1ccc(CCNc2ncc(C(=O)O)c(C(C)C)n2)cc1OC	820
CCOc1ccc(-c2cc3c(=O)n(Cc4nc(-c5ccc(F)cc5)no4)ncn3n2)cc1	1160
Cc1cc(NS(=O)(=O)c2cc(-c3[nH]ncc3C(=O)N3CCOCC3)oc2C)ccc1F	691
CC1(C(=O)Nc2ccc(F)c(Cl)c2)Oc2cccnc2NC1=O (stereo not given)	730
O=C(Nc1nccn(-c2ccc3c(c2)CCC3)c1=O)c1ccc(Cl)cc1	962
CCCc1c(C(=O)O)nnn1-c1ccc(OC)c(Cl)c1	773
Cn1nnc2cc(C(=O)N3CCCCC3)ccc21	738
COc1cc(C(=O)Nc2nc(-c3ccc4c(c3)N(C)C(=O)CO4)cs2)cc(OC)c1OC	860
CCN(CC)c1ncc2c(n1)CCC(C(=O)Nc1ccc(OC)cc1OC)C2 (stereo not given)	726
O=c1c2sccc2n(Cc2nc(-c3cccc(Br)c3)no2)c(=O)n1-c1ccccc1	1050
O=C(CCC1CCN(c2cc(NC3CC3)ncn2)CC1)N1CCN(c2ccccn2)CC1	536
Fc1cccc(-c2nnc(C(c3cccc(Cl)c3)N3CCN(c4ccccn4)CC3)o2)c1 (stereo not given)	774
Cn1c(CCN2C(=O)C3(CCOCC3)CC2c2nnnn2C(C)(C)C)nc2ccccc21 (stereo not given)	578
COc1cccc(Cn2cccc(S(=O)(=O)N3CCCC3)c2=O)c1	807

More lines, now with the values ahead:

RP-LC retention time [s]	SMILES
690	O=C(NC1CCCCC1)c1c2c(nc3ccccc13)CCC2
537	CN(Cc1nc2ccccc2[nH]1)C(=O)c1ccco1
733	COc1ccc(Cn2nnc3cc(C(=O)NCC4CCCO4)ccc32)cc1 (stereo not given)
799	CC(=O)Nc1ccc(-c2nc3ccccc3s2)cc1
1260	CCC(C)(C)c1ccc(Oc2cccc(C(=O)O)c2)cc1
1040	O=C(Nc1ccc2c(c1)OCCO2)C(=O)c1cccn1Cc1ccccc1
685	COC(=O)[C@@H]1Cc2c([nH]c3ccccc23)C(c2ccccc2C)N1 (stereo not given in full)
1000	CCOc1ccccc1OCc1nn2c(COc3ccc(F)cc3)nnc2s1
762	COc1ccc(NC(=O)C2c3ccccc3C(=O)N3CCc4ccccc4C23)cc1OC (stereo not given)
675	Cc1cccc(CNC(=O)c2cn3ccc(C)cc3n2)c1
953	CCC1Oc2ccc(S(=O)(=O)N3CCC(C(=O)NCc4cccc(OC)c4)CC3)cc2NC1=O (stereo not given)
800	CN1c2ccc(Cl)cc2C(=O)NC12CCN(C(=O)Nc1ccccc1)CC2
965	Cc1ccc(C(=O)COC(=O)c2ccc3nc(C)c(C)nc3c2)cc1
789	COc1cccc(N2C(=O)CC(c3ccc(OC)c(OC)c3)CC2=O)c1
1100	COc1ccccc1-c1noc(Cn2ncn3nc(-c4cc(C)ccc4C)cc3c2=O)n1
645	CN(CCCNC(=O)CN1C(=O)CCn2nc(-c3cn(C)c4ccccc34)cc21)Cc1ccccc1
880	COc1ccc(S(=O)(=O)Nc2ccccc2C(=O)Nc2ccc3c(c2)OCCO3)cc1
649	COC(=O)c1cnc2nc(C)ccc2c1Nc1ccccc1F
596	CNC(=O)c1cc(=O)[nH]c2c(Cl)cccc12
648	Cc1ccc(-c2n[nH]c3c2CN(C(=O)c2cnn4cccnc24)CC3)cc1
734	Cc1cccc(C(=O)N2CCC3(C2)C(=O)Nc2ccccc23)c1 (stereo not given)
620	COCCn1c(C(CNc2cccc(C)c2)CC(=O)O)nc2ccccc21 (stereo not given)
